Test results: US9102648B1, “Bioavailable diacylhydrazine ligands for modulating the expression of exogenous genes via an ecdysone receptor complex” (Intrexon Corporation, priority 2003, dated 2015)

Tests used:
[1] = target: T1, Bombyx mori EcR (VP16 fusion, CVBE switch construct) (Bombyx mori, UniProt P49881); test: Z3 Assay (HEK-293 cells with CVBE and 6XEcRE LacZ, β-galactosidase reporter); settings: for Fold Induction, Z3 Assay, 33 uM: 33 uM ligand; for Fold Induction, Z3 Assay, 33 uM / Fold Induction, Z3 Assay, 3.3 uM: ligand treated / DMSO treated cells; for Fold Induction, Z3 Assay, 33 uM / EC50 / Fold Induction, Z3 Assay, 3.3 uM: average of two wells; for EC50: read-out: Z3 assay EC50, β-galactosidase reporter; for EC50 / Z3 assay Rel Max FI: HEK-293 Z3 cells; for Fold Induction, Z3 Assay, 3.3 uM: 3.3 uM ligand; for Z3 assay Rel Max FI: maximum fold induction at any concentration relative to that of GS-E ligand
T1 sequence (P49881 86-606): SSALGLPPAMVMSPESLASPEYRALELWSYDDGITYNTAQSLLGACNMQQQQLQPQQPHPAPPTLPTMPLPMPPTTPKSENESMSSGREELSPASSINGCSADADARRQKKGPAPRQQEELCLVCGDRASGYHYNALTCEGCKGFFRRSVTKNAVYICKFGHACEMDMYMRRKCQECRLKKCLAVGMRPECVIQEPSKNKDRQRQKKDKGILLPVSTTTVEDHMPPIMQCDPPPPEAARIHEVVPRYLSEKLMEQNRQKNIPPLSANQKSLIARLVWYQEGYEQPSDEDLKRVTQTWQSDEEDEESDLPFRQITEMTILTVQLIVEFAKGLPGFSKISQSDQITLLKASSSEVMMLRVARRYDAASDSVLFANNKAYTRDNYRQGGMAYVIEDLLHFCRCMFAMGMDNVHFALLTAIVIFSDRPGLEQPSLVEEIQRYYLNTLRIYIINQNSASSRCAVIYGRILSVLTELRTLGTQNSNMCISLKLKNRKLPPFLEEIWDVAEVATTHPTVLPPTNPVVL
T1 sequence (P19793 1-462 partner): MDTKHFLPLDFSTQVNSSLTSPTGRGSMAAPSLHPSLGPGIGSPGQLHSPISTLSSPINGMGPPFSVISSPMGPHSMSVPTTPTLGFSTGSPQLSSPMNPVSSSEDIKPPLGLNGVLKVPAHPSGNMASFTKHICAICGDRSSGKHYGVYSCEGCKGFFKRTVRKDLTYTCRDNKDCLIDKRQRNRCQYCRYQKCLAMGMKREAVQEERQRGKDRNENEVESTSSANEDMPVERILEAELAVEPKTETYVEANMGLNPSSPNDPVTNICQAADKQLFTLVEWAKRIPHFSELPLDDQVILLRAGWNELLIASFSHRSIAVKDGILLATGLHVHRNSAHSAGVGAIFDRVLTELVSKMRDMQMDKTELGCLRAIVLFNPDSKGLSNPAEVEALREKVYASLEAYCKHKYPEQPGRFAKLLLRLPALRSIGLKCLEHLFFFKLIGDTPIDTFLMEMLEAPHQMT

[2] = target: GAL4 DBD-CfEcR(DEF)/VP16AD-MmRXRE (Choristoneura fumiferana, UniProt O77240); test: 13B3 Assay (CHO stable cell line, luciferase reporter); settings: for Fold Induction, 13B3 Assay, 33 uM: 33 uM ligand; for Fold Induction, 13B3 Assay, 33 uM / Fold Induction, 13B3 Assay, 3.3 uM: RLU ligand treated / RLU DMSO treated cells; for Fold Induction, 13B3 Assay, 33 uM / Fold Induction, 13B3 Assay, 3.3 uM / EC50: average of two wells; for Fold Induction, 13B3 Assay, 3.3 uM: 3.3 uM ligand; for 13B3 assay Rel Max FI: maximum fold induction at any concentration relative to that of GS-E ligand, CHO 13B3 cells; for EC50: read-out: 13B3 EC50, CHO 13B3 stable cell line, luciferase reporter, 48 h
In short: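 Ligands dosed at 8 levels from 33 to 0.01 μM (DMSO stocks diluted 300-fold) onto the 13B3 CHO line carrying GAL4-DBD/CfEcR-DEF, VP16/MmRXR-DE and a GAL4-responsive luciferase gene.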

Structure (SMILES) | Fold Induction, Z3 Assay, 33 uM [1] | EC50 [1] | Fold Induction, 13B3 Assay, 33 uM [2] | Fold Induction, Z3 Assay, 3.3 uM [1] | Z3 assay Rel Max FI [1] | Fold Induction, 13B3 Assay, 3.3 uM [2] | 13B3 assay Rel Max FI [2] | EC50 [2]
COc1cccc(C(=O)NN(C(=O)c2cccnc2Cl)C(C)(C)C)c1C [RG-100127] | 245 | 4.68 µM | 365 | – | – | – | – | –
COc1ccccc1C(=O)N(NC(=O)c1ccc2c(c1C)OCOC2)C(C)(C)C [RG-100216] | 398 | 1.78 µM | 8037 | – | – | – | – | –
COc1cc(C(=O)N(NC(=O)c2cccc(OC)c2C)C(C)(C)C)ccc1C [RG-100768] | 425 | 0.214 µM | 709 | 1246 | 1.129 | – | – | –
COc1cc(C)ccc1C(=O)N(NC(=O)c1cccc(OC)c1C)C(C)(C)C [RG-100769] | 542 | 0.219 µM | 386 | 1096 | 1.109 | 1014 | 0.685 | 0.337 µM
CCc1c(OC)cccc1C(=O)NN(C(=O)c1cc(OC)cc(OC)c1)C(C)(C)C [RG-100778] | 365 | 0.513 µM | 2344 | – | 1.000 | – | – | –
CC(C)(C)N(NC(=O)c1c(F)cccc1F)C(=O)c1cc(Cl)cc(Cl)c1 [RG-100801] | 153 | 0.891 µM | 16 | – | – | – | – | –
CC(=O)c1cccc(C(=O)NN(C(=O)c2cc(C)cc(C)c2)C(C)(C)C)c1C [RG-100814] | 1279 | 1.15 µM | 1151 | 410 | – | 423 | 0.843 | 37.9 µM
COc1cc(Cl)ccc1C(=O)N(NC(=O)c1cccc(OC)c1C)C(C)(C)C [RG-100848] | 26 | 0.24 µM | 578 | 885 | 0.996 | 3391 | 0.666 | 1.65 µM
Cc1cc(C)cc(C(=O)N(NC(=O)c2ccc(CC#N)cc2)C(C)(C)C)c1 [RG-100875] | 1081 | 2.04 µM | 1143 | 1006 | 0.818 | 23 | 0.853 | 4.02 µM
COc1cccc(C(=O)NN(C(=O)c2ccc(Cl)cc2F)C(C)(C)C)c1C [RG-100929] | 490 | 0.631 µM | 359 | – | – | – | – | –
CCc1ccc(C(=O)NN(C(=O)c2ccccc2[N+](=O)[O-])C(C)(C)C)cc1 [RG-101013] | 846 | 1.48 µM | 406 | 1039 | 0.720 | 1084 | 0.539 | 2.26 µM
Cc1cc(C)cc(C(=O)N(NC(=O)c2ccc3c(c2)COCO3)C(C)(C)C)c1 [RG-101016] | 394 | 2 µM | 4693 | – | – | – | – | –
CCc1c(C(=O)NN(C(=O)c2cccc(C)c2)C(C)(C)C)ccc2c1OCCO2 [RG-101036] | 404 | 0.054 µM | 908 | 767 | 1.049 | 4582 | 0.545 | 0.223 µM
CC(C)(C)N(NC(=O)c1ccc2c(c1)OCO2)C(=O)c1ccc(F)cc1Cl [RG-101048] | 283 | 19.1 µM | 701 | – | – | – | – | –
COc1ccc(C(=O)NN(C(=O)c2ccc(F)cc2Cl)C(C)(C)C)cc1 [RG-101057] | 930 | 4.47 µM | 842 | 632 | 0.697 | 33 | 0.569 | 4.97 µM
Cc1cc(C)cc(C(=O)N(NC(=O)c2cc3c(cc2C)OCO3)C(C)(C)C)c1 [RG-101088] | 302 | 4.07 µM | 1400 | – | – | – | – | –
Cc1cc(C)cc(C(=O)N(NC(=O)c2cc3c(cc2Cl)OCO3)C(C)(C)C)c1 [RG-101171] | 268 | 3.24 µM | 8453 | – | – | – | – | –
CCc1c(OC)cccc1C(=O)NN(C(=O)c1ccc(Cl)cc1OC)C(C)(C)C [RG-101218] | 398 | 0.316 µM | 1983 | 886 | 0.998 | – | – | –
COc1cccc(C(=O)NN(C(=O)c2cc(C)ccc2Cl)C(C)(C)C)c1Cl [RG-101248] | 375 | 1.45 µM | 415 | – | – | – | – | –
Cc1cc(C)cc(C(=O)N(NC(=O)c2ccc3c(c2Br)OCCO3)C(C)(C)C)c1 [RG-101340] | 432 | 0.234 µM | 879 | 866 | 1.126 | 675 | 0.364 | 0.106 µM
COc1cccc(C(=O)NN(C(=O)c2cc(C)cc(Br)c2)C(C)(C)C)c1C [RG-101353] | 439 | 0.107 µM | 718 | 530 | 1.078 | 1347 | 1.163 | 0.675 µM
COc1cccc(C(=O)NN(C(=O)c2cc(Cl)cc(Br)c2)C(C)(C)C)c1C [RG-101408] | 398 | 0.148 µM | 326 | 780 | 1.118 | – | – | –
Cc1cc(C)cc(C(=O)N(NC(=O)c2ccc3c(c2)OC(C)O3)C(C)(C)C)c1 (stereo not shown) [RG-101511] | 487 | 0.468 µM | 744 | 947 | 1.122 | 1912 | 0.811 | 0.794 µM
COc1cc(C(=O)NN(C(=O)c2cc(C)cc(C)c2)C(C)(C)C)ccc1C [RG-101585] | 330 | 4.9 µM | 1015 | – | – | – | – | –
CCc1c(C(=O)NN(C(=O)c2cc(C)cc(C)c2)C(C)(C)C)ccc2c1OC(C)O2 (stereo not shown) [RG-101659] | 876 | 0.214 µM | 1185 | 954 | – | 1556 | 0.867 | 0.562 µM
CCc1cccc(C(=O)NN(C(=O)c2cc(C)cc(C)c2)C(C)(C)C)c1C [RG-101691] | 1089 | 0.174 µM | 630 | 654 | 1.068 | 5245 | 0.918 | 0.406 µM
Cc1cc(C)cc(C(=O)N(NC(=O)c2cccc(OC(F)(F)F)c2C)C(C)(C)C)c1 [RG-101692] | 860 | 0.309 µM | 170 | 435 | 0.975 | 4180 | 1.004 | 0.728 µM
